The record followed here is patent US20170334899A1, “AMINO-SUBSTITUTED ISOTHIAZOLES” (Bayer Pharma Aktiengesellschaft, priority 2014, published 2017).

In assay [1] the target is T1, CDK2/CycE (Homo sapiens, UniProt P24941).
T1 construct: GST; purchased ProQinase GmbH (Freiburg, Germany); host or cells: insect cells (Sf9)
The experiment in a line: CDK2/CycE kinase assay (TR-FRET). Format: biochemical. The note with it: avg, read-out: CDK2 avg (IC50 [mol/l]). The method in brief: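 GST-tagged human CDK2 and CycE from Sf9 cells, preincubated 15 min with compound, then 25 min at 22° C. with 10 μM ATP and 0.75 μM biotinylated Rb-derived peptide (final). Phospho-substrate read by TR-FRET (anti-pRB pSer807/pSer811, Eu anti-mouse IgG, streptavidin-XL665), 665/620 nm ratio, normalised to no-inhibitor and no-enzyme controls.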
Background: In TR-FRET formats the signal depends on donor and acceptor labels being close together.

Assay [2] relates to HeLa. The experiment in a line: Proliferation assay (crystal violet), HeLa. The class given is cell-based. The conditions noted are these: HeLa cells, 4 days incubation, crystal violet staining, read-out: IC50 inhibition of proliferation, HeLa. The method in brief: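 Cells plated at 1000-5000/well with 10% FCS, treated after 24 h with compound at 0.001-10 μM (0.5% DMSO) for 4 days. Glutaraldehyde-fixed, crystal violet-stained, A595 normalised to zero-point plate (0%) and untreated cells (100%); IC50 by 4-parameter fit.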

Read-outs that look alike come from different tables or passages of the source.

As to `Cc1nsc(Nc2cnc3ccccc3n2)c1C(=O)Nc1ccc(OCCCNC(=O)OC(C)(C)C)nc1` [Example 42, tert-Butyl (3-{[5-({[3-methyl-5-(quinoxalin-2-ylamino)-1,2-thiazol-4-yl]carbonyl}-amino)pyridin-2-yl]oxy}propyl)carbamate], the IC50 in assay [1] is ≥ 20 µM; in assay [2] (Homo sapiens, HeLa, 96 h), 2300 nM.
As to `Cc1nsc(Nc2cnc(C(F)(F)F)cn2)c1C(=O)Nc1ccc(F)c(OCC2CCN(CC(F)(F)F)C2)c1` (centres unmarked) [Example 318, N-(4-fluoro-3-{[1-(2,2,2-trifluoroethyl)pyrrolidin-3-yl]methoxy}phenyl)-3-methyl-5-{[5-(trifluoromethyl)pyrazin-2-yl]amino}-1,2-thiazole-4-carboxamide], the IC50 was > 20 µM in assay [1]; 410 nM in assay [2]; 220 nM in assay [2] (Homo sapiens, HeLa, 96 h).
As for `Cc1nsc(Nc2cnc(C(F)(F)F)cn2)c1C(=O)Nc1ccc(O[C@@H]2CN(CC(F)F)C[C@@H]2F)nc1` [Example 411, N-(6-{[(3R,4S)-1-(2,2-Difluoroethyl)-4-fluoropyrrolidin-3-yl]oxy}pyridin-3-yl)-3-methyl-5-{[5-(trifluoromethyl)pyrazin-2-yl]amino}-1,2-thiazole-4-carboxamide], the IC50 is > 20 µM in assay [1] and 170 nM in assay [2] (Homo sapiens, HeLa, 96 h).
The corresponding values for `Cc1nsc(Nc2nc3c(C(F)(F)F)cccc3s2)c1C(=O)Nc1ccc(OCCO)nc1` [Example 2, N-[6-(2-Hydroxyethoxy)pyridin-3-yl]-3-methyl-5-{[4-(trifluoromethyl)-1,3-benzo-thiazol-2-yl]amino}-1,2-thiazole-4-carboxamide] are ≥ 20 µM and 4900 nM.
Take `Cc1nsc(Nc2cnc3ccccc3n2)c1C(=O)Nc1cccc(C(=O)NCC(=O)OC(C)(C)C)c1` [Example 54, tert-Butyl N-[3-({[3-methyl-5-(quinoxalin-2-ylamino)-1,2-thiazol-4-yl]carbonyl}amino)-benzoyl]glycinate]: the IC50 in assay [1] is ≥ 20 µM; in assay [2] (Homo sapiens, HeLa, 96 h), 10000 nM.
